Assay [1] concerns the target T1, human TLR9 (Homo sapiens, UniProt Q9NR96).
T1 construct: host or cells: HEK-Blue cells
T1 sequence (Q9NR96 26-1032): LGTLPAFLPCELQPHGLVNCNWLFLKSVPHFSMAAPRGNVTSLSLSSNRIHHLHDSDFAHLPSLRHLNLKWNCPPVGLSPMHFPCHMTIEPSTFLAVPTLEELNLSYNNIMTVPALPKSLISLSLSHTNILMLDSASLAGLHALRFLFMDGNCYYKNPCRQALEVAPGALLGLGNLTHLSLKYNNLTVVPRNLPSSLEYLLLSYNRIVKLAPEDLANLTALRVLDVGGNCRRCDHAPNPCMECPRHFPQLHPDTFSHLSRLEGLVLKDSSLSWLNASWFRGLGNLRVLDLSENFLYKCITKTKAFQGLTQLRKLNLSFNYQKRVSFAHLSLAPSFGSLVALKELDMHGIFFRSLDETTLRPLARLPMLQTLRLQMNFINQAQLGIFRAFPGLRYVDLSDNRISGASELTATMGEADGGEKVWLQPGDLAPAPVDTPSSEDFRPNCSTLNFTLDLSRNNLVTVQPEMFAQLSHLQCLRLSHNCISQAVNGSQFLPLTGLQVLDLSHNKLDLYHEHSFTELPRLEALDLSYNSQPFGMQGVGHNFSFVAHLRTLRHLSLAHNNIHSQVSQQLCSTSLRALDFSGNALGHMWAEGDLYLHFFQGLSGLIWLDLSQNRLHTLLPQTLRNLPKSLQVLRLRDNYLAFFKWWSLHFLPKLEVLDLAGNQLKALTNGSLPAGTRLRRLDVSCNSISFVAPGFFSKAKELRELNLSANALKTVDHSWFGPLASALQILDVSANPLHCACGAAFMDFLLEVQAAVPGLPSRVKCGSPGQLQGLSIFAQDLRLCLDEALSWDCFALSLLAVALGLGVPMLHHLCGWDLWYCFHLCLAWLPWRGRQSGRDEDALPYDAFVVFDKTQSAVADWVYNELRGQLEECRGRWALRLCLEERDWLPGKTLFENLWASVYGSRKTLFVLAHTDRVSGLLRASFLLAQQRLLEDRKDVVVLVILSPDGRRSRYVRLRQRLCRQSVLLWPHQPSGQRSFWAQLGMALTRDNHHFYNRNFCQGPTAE
Kind of assay: TLR9 inhibition reporter assay (HEK-Blue SEAP). It counts as cell-based. The conditions noted are these: HEK-Blue cells overexpressing human TLR9, ODN2006 5 nM, 22 hour incubation. Summed up:
(§1)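 Agonists used: gardiquimod 7.5 μM (TLR7), R848 15.9 μM (TLR8), ODN2006 5 nM (TLR9), added after 30 min room-temperature compound pre-treatment (0.05 nM–50 μM) of receptor-overexpressing HEK-Blue cells. SEAP reporter (NF-κB/AP-1 driven) read after 22 h at 37 °C; inhibition scaled between agonist+DMSO and reference-inhibitor wells.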
In general terms: Reporter assays use an easily measured gene product as a stand-in for the process of interest.

In assay [2] the target is T2, human TLR8 (Homo sapiens, UniProt Q9NR97).
T2 construct: host or cells: HEK-Blue cells
T2 sequence (Q9NR97 27-1041): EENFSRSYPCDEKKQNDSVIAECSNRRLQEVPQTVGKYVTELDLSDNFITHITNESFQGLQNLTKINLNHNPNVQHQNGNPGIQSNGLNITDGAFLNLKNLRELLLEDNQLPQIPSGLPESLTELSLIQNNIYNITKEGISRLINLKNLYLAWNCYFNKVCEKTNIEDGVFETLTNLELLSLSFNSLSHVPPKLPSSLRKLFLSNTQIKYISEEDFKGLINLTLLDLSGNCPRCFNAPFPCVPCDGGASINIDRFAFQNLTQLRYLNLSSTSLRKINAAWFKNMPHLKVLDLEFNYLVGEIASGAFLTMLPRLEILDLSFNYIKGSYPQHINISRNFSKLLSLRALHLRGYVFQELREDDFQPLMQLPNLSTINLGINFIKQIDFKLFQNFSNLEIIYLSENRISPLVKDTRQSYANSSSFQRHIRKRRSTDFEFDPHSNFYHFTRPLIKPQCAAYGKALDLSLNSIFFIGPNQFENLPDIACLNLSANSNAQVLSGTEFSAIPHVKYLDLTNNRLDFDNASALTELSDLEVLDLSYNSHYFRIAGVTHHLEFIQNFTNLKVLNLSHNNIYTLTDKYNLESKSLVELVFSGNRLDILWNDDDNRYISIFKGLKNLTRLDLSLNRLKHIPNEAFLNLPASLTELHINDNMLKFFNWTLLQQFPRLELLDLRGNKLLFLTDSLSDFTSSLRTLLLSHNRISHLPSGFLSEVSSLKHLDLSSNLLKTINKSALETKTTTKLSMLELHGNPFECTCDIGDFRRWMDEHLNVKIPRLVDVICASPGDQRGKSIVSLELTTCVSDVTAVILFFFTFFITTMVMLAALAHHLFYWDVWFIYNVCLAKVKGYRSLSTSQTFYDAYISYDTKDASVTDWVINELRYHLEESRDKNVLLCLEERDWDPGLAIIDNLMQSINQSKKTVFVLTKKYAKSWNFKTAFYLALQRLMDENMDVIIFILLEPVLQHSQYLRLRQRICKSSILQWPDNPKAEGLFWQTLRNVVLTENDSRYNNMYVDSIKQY
Kind of assay: TLR8 inhibition reporter assay (HEK-Blue SEAP). It counts as cell-based. The conditions noted are these: HEK-Blue cells overexpressing human TLR8, R848 15.9 μM, 22 hour incubation. Summed up:
as §1

What is called IC50 is the concentration at which inhibition is half-maximal. Read a high IC50 as lower potency.

For `Cc1c(-c2cc3[nH]c(=O)n(C4CCC(N5CC(F)C5)CC4)c3cc2C(C)C)cn2ncnc2c1C` (centres unmarked) [Example 279, 5-(7,8-dimethyl-[1,2,4]triazolo[1,5-a]pyridin-6-yl)-1-(4-(3-fluoroazetidin-1-yl)cyclohexyl)-6-isopropyl-1,3-dihydro-2H-benzo[d]imidazol-2-one], the IC50 in assay [1] stood at 10800 nM; in assay [2] it was 1.52 nM.

As for `Cc1c(-c2cc3[nH]c(=O)n(C4CCC(N5CC6(COC6)C5)CC4)c3cc2C(C)C)cn2ncnc2c1C` (single isomer, unassigned) [Example 298], the values for the IC50 in assay [1] and in assay [2] were 3790 nM and 3.76 nM, respectively.

As for `COc1cc(-c2cc3[nH]c(=O)n(C4CCC(N5CC(F)(F)C5)CC4)c3cc2C(C)C)cn2ncnc12` (single isomer, unassigned) [Example 296], the IC50 in assay [1] was > 50000 nM; in assay [2], 3.4 nM.

For `COc1cc(-c2cc3[nH]c(=O)n(C4CCC(N5CC[C@H](F)C5)CC4)c3cc2C(C)C)cn2ncnc12` (stereo partly drawn) [Example 287, (S)-1-(4-(3-fluoropyrrolidin-1-yl)cyclohexyl)-6-isopropyl-5-(8-methoxy-[1,2,4]triazolo[1,5-a]pyridin-6-yl)-1,3-dihydro-2H-benzo[d]imidazol-2-one], the figures for the 50% inhibitory concentration (IC50) in assay [1] and in assay [2] were 10900 nM and 1.66 nM, respectively.

Regarding `COc1cc(-c2cc3[nH]c(=O)n([C@H]4CC[C@@H](N)CC4)c3cc2C)cn2ncnc12` [1 EG, 1-((1s,4s)-4-aminocyclohexyl)-5-(8-methoxy-[1,2,4]triazolo[1,5-a]pyridin-6-yl)-6-methyl-1,3-dihydro-2H-benzo[d]imidazol-2-one], the values for the IC50 in assay [1] and in assay [2] were 3650 nM and 32.6 nM, respectively.

`COc1c(C)c(-c2cc3[nH]c(=O)n(C4CCC(N5CC(OC)C5)CC4)c3cc2C(C)C)cn2ncnc12` (centres unmarked) [Example 266, 6-isopropyl-5-(8-methoxy-7-methyl-[1,2,4]triazolo[1,5-a]pyridin-6-yl)-1-(4-(3-methoxyazetidin-1-yl)cyclohexyl)-1,3-dihydro-2H-benzo[d]imidazol-2-one]: the IC50 in assay [1] amounted to 23000 nM; in assay [2] it was 4.47 nM.

For the compound `Cc1c(-c2cc3[nH]c(=O)n(C4CCC(N5CCCOCC5)CC4)c3cc2C(C)C)cn2ncnc2c1C` (centres unmarked) [Example 272, 1-(4-(1,4-oxazepan-4-yl)cyclohexyl)-5-(7,8-dimethyl-[1,2,4]triazolo[1,5-a]pyridin-6-yl)-6-isopropyl-1,3-dihydro-2H-benzo[d]imidazol-2-one], the IC50 stood at 6750 nM in assay [1] and 0.49 nM in assay [2].

As for `COCCNC1CCC(n2c(=O)[nH]c3cc(-c4cn5ncnc5c(OC)c4C)c(C(C)C)cc32)CC1` (centres unmarked) [Example 258], the IC50 in assay [1] is 24300 nM; in assay [2], 0.6 nM.

Regarding `Cc1cc2c(cc1-c1cc(C)c3ncnn3c1)[nH]c(=O)n2[C@H]1CC[C@@H](NCCC(F)(F)F)CC1` [Example 31], the IC50 is 2960 nM in assay [1] and 1.32 nM in assay [2].

For `Cc1c(-c2cc3[nH]c(=O)n(C4CCC(N5CC6(COC6)C5)CC4)c3cc2C(C)C)cn2ncnc2c1C` (single isomer, unassigned) [Example 281, 1-(4-(2-oxa-6-azaspiro[3.3]heptan-6-yl)cyclohexyl)-5-(7,8-dimethyl-[1,2,4]triazolo[1,5-a]pyridin-6-yl)-6-isopropyl-1,3-dihydro-2H-benzo[d]imidazol-2-one], the IC50 in assay [1] is 13100 nM; in assay [2], 2.67 nM.

In the case of `Cc1cc2c(cc1-c1cc(C)c3ncnn3c1)[nH]c(=O)n2[C@@H]1CCCN(C2COC2)C1` [Example 18, (R)-6-methyl-5-(8-methyl-[1,2,4]triazolo[1,5-a]pyridin-6-yl)-1-(1-(oxetan-3-yl)piperidin-3-yl)-1,3-dihydro-2H-benzo[d]imidazol-2-one], the IC50 in assay [1] was > 50000 nM; in assay [2], 80.8 nM.

For the compound `COc1cc(-c2cc3[nH]c(=O)n(C4CCC(N5CCC(F)(F)CC5)CC4)c3cc2C(C)C)cn2ncnc12` (single isomer, unassigned) [Example 246, 1-(4-(4,4-difluoropiperidin-1-yl)cyclohexyl)-6-isopropyl-5-(8-methoxy-[1,2,4]triazolo[1,5-a]pyridin-6-yl)-1,3-dihydro-2H-benzo[d]imidazol-2-one], the figures for the IC50 in assay [1] and in assay [2] were 15500 nM and 0.16 nM, respectively.

For the compound `COc1cc(-c2cc3[nH]c(=O)n(C4CCC(N5CCC(S(C)(=O)=O)C5)CC4)c3cc2C(C)C)cn2ncnc12` (single isomer, unassigned) [Example 289, 6-isopropyl-5-(8-methoxy-[1,2,4]triazolo[1,5-a]pyridin-6-yl)-1-(4-(3-(methylsulfonyl)pyrrolidin-1-yl)cyclohexyl)-1,3-dihydro-2H-benzo[d]imidazol-2-one], the concentration for half-maximal inhibition (IC50) was > 50000 nM in assay [1] and 4.44 nM in assay [2].

On to `COc1cc(-c2cc3[nH]c(=O)n(C4CCC(N5CCSCC5)CC4)c3cc2C(C)C)cn2ncnc12` (centres unmarked) [Example 251, 6-isopropyl-5-(8-methoxy-[1,2,4]triazolo[1,5-a]pyridin-6-yl)-1-(4-thiomorpholinocyclohexyl)-1,3-dihydro-2H-benzo[d]imidazol-2-one], for which the results for the 50% inhibitory concentration (IC50) in assay [1] and in assay [2] were 11900 nM and 0.95 nM, respectively.

`CCN(CC)[C@H]1CC[C@@H](n2c(=O)[nH]c3cc(-c4cc(C)c5ncnn5c4)c(C)cc32)CC1` [Example 20, 1-((1s,4s)-4-(diethylamino)cyclohexyl)-6-methyl-5-(8-methyl-[1,2,4]triazolo[1,5-a]pyridin-6-yl)-1,3-dihydro-2H-benzo[d]imidazol-2-one]: the results for the IC50 in assay [1] and in assay [2] were 3350 nM and 14.4 nM, respectively.

In the case of `Cc1c(-c2cc3[nH]c(=O)n([C@@H]4CCCNC4)c3cc2C(C)C)cn2ncnc2c1C` [119 FC, (R)-5-(7,8-dimethyl-[1,2,4]triazolo[1,5-a]pyridin-6-yl)-6-isopropyl-1-(piperidin-3-yl)-1,3-dihydro-2H-benzo[d]imidazol-2-one], the 50% inhibitory concentration (IC50) in assay [1] came to 11700 nM; in assay [2] it was 7.17 nM.

Turning to `Cc1cc(-c2ccc3c(c2)[nH]c(=O)n3C2CCNCC2)cn2ncnc12` [1 EB, 5-(8-methyl-[1,2,4]triazolo[1,5-a]pyridin-6-yl)-1-(piperidin-4-yl)-1,3-dihydro-2H-benzo[d]imidazol-2-one], the half-inhibitory concentration (IC50) in assay [1] worked out at 347 nM; in assay [2] it was 1030 nM.

`COc1cc(-c2cc3[nH]c(=O)n(C4CCC(N5CC(F)(F)C5)CC4)c3cc2C(C)C)cn2ncnc12` (single isomer, unassigned) [Example 297]: the figures for the half-inhibitory concentration (IC50) in assay [1] and in assay [2] were 16200 nM and 8.4 nM, respectively.

With `CCc1cc2c(cc1-c1cc(OC)c3ncnn3c1)[nH]c(=O)n2[C@@H]1CCCNC1` [119 FB, (R)-6-ethyl-5-(8-methoxy-[1,2,4]triazolo[1,5-a]pyridin-6-yl)-1-(piperidin-3-yl)-1,3-dihydro-2H-benzo[d]imidazol-2-one], the IC50 was 2500 nM in assay [1] and 6.99 nM in assay [2].

The record behind these values is patent US12187723B2 (BRISTOL-MYERS SQUIBB COMPANY, priority 2019, dated 2025).
